Source: ChEMBL document CHEMBL1201862, “PubChem BioAssay data set” (2004)
The source made the active and inactive calls.

Experiments:
[1] = NIH-3T3 fibroblast cytotoxicity, dose response, cytotoxicity control, cell-based, fluorescence, Alamar Blue, secondary assay (AID 2327); type: functional;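 also: NIH-3T3 mouse fibroblasts cultured with fluconazole at 8 µg/mL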
[2] = C. albicans growth with fluconazole, confirmation, fluorescence, retest (AID 2467); type: functional, cell-based
[3] = molecular target: T1, Mannose-6-phosphate isomerase (Homo sapiens, UniProt P34949); experiment: human PMI inhibitors, high substrate, primary screen, biochemical, fluorescence intensity, high mannose 6-phosphate (AID 1220)
T1 sequence (P34949 whole entry): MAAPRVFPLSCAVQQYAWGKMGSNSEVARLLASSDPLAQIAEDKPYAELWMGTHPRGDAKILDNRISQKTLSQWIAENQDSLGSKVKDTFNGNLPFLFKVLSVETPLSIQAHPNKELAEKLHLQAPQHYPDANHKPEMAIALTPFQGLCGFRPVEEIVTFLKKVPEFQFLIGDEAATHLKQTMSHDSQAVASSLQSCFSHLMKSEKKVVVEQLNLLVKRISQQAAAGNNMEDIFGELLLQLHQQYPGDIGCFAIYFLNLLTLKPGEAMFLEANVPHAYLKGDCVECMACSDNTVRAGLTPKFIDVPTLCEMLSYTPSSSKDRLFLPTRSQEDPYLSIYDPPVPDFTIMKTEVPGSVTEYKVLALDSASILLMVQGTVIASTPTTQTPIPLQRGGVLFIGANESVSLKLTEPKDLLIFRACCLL

[4] = molecular target: T2, Short transient receptor potential channel 4 (Mus musculus, UniProt Q9QUQ5); experiment: mouse TRPC4 channel activators, dose response, cell-based, HEK293 TRPC4/mu-opioid, Fluo-4 calcium (AID 434937); type: functional
T2 sequence (Q9QUQ5 whole entry): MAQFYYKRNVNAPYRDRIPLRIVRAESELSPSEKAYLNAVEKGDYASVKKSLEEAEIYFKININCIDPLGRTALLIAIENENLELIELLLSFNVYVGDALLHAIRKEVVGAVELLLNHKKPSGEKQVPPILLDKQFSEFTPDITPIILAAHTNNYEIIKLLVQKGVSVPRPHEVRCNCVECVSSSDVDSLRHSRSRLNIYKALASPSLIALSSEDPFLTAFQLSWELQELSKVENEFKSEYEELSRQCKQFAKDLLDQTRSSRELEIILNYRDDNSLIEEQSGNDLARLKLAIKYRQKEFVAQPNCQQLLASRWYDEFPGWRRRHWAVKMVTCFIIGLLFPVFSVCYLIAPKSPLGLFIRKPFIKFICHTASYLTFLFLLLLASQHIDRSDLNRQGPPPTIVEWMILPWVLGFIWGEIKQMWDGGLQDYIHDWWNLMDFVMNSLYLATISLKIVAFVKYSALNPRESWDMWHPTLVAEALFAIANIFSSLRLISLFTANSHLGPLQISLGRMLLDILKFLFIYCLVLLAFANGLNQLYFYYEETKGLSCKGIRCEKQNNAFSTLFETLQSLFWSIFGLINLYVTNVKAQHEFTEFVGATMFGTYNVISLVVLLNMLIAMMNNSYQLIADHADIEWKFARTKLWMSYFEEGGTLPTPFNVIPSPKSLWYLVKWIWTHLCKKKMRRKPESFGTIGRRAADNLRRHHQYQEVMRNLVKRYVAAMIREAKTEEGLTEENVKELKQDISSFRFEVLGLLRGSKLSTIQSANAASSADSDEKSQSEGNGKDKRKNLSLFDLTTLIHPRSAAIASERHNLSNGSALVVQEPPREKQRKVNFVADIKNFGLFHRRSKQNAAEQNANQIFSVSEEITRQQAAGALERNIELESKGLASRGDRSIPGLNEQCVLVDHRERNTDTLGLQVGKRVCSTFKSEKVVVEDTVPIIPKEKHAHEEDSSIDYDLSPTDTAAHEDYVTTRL

[5] = molecular target: Glyceraldehyde-3-phosphate dehydrogenase (Homo sapiens, UniProt P04406)
[6] = molecular target: Luciferin 4-monooxygenase (Photinus pyralis, UniProt P08659); experiment: firefly luciferase enzyme inhibitors, dose response, biochemical, luminescence (AID 1891)
[7] = molecular target: T3, Cytochrome P450 1A2 (Homo sapiens, UniProt P05177);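 also: PubChem cytochrome P450 panel assay, CYP1A2 panel member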
T3 sequence (P05177 whole entry): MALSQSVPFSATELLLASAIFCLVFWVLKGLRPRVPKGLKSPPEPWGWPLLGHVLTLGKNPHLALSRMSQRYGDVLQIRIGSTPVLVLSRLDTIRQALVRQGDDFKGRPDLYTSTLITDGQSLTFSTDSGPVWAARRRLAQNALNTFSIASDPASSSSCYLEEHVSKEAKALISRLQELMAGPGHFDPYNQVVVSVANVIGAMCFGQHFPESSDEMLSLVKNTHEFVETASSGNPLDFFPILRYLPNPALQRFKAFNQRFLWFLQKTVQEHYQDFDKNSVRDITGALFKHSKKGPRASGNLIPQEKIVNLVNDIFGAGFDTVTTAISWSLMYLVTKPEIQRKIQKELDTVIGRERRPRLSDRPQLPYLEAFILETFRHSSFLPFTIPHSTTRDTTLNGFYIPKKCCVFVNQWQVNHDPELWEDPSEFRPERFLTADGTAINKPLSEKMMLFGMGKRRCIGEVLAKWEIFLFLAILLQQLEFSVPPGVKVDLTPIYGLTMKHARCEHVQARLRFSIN

[8] = molecular target: T2, Short transient receptor potential channel 4; experiment: mouse TRPC4 channel inhibitors, dose response, cell-based, HEK293 TRPC4/mu-opioid, Fluo-4 calcium (AID 434942); type: functional;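 also: potency of inhibitors blocking the TRPC4 calcium response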
[9] = molecular target: Cytochrome P450 2C9 (Homo sapiens, UniProt P11712)
[10] = Luminescence Cell-Based Dose Confirmation HTS to Identify Inhibitors of Platelet Dense Granule Release. [Related pubchem assays: 1663 (Primary HTS), 1678 (Summary of Project)]; type: functional
[11] = molecular target: Cytochrome P450 2C19 (Homo sapiens, UniProt P33261); experiment: Cytochrome panel assay with activity outcomes. Panel member name: p450-cyp2c19 Compounds with AC50 equal or less than 10 uM are considered active; type: functional; conditions: read-out: AC50
[12] = molecular target: T4, Heat shock factor protein 1 (Mus musculus, UniProt P38532); experiment: HSF1 potentiators in luciferase reporter cells, confirmation, cell-based, NIH3T3, luminescence, dose retest (AID 435004); type: functional;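 also: stress induced by proteasome inhibitor MG132 added 30 min after compound; luciferase reporter driven by HSF1 response element in NIH3T3 cells; actives raise luminescence as potentiators of the MG132 stress response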
T4 sequence (P38532 whole entry): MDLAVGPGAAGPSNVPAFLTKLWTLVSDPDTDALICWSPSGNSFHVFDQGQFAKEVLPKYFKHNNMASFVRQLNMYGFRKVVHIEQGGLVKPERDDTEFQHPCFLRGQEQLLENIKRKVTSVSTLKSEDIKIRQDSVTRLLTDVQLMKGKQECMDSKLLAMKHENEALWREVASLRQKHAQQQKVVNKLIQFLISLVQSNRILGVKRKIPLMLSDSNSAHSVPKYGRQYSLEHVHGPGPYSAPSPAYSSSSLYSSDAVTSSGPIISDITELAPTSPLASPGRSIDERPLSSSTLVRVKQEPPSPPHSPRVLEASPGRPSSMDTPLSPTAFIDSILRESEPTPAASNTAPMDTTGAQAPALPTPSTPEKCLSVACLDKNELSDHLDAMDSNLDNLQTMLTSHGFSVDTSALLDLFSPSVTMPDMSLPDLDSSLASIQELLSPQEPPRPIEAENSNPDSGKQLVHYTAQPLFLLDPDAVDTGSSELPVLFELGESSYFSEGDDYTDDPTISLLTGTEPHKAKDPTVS

[13] = molecular target: T5, Corticotropin-releasing factor receptor 2/Corticotropin-releasing factor-binding protein (Homo sapiens, UniProt P24387+Q13324); experiment: activators of CRF receptor 2 with binding protein – uHTS hits, confirmation (AID 602473); type: functional; conditions: read-out: EC50_Mean
T5 sequence (Q13324 whole entry): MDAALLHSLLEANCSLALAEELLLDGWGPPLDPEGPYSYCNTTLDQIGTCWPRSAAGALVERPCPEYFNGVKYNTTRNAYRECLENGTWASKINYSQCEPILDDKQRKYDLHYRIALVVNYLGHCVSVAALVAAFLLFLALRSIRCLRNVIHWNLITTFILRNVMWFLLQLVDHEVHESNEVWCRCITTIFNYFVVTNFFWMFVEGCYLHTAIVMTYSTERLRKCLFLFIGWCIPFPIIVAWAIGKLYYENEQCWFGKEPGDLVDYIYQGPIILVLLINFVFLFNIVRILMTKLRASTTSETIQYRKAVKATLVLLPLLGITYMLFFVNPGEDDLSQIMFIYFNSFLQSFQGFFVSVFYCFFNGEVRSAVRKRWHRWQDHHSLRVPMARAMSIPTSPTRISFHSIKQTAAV
T5 sequence (P24387 whole entry): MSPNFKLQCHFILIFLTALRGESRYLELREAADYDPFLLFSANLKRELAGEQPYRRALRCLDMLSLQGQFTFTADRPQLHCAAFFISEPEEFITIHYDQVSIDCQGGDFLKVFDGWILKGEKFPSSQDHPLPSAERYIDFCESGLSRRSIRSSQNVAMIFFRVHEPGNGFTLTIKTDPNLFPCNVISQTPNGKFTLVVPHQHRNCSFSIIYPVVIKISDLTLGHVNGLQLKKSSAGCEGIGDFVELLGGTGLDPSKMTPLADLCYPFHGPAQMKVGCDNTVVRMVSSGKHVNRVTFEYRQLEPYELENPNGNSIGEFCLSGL

[14] = microbe, parasite or virus in culture; type: functional; conditions: Mycobacterium tuberculosis
[15] = inhibitors of clade B AD8 Env fusion, dose response, cell-based, cherry-pick (AID 652062); type: functional;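 also: luciferase signal from cell-cell fusion driven by HIV-1 clade B AD8 Env; potency is for inhibitors of fusion seen as a drop in luminescence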
[16] = molecular target: Paired box protein Pax-8 (Homo sapiens, UniProt Q06710); experiment: inhibitors of PAX8-driven TPO luciferase reporter, dose response, RMG-I cells, cherry-pick (AID 687027); type: functional, cell-based;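 also: luciferase reporter driven by Pax8 target thyroperoxidase promoter measured by SteadyGlo luminescence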
Chain of Paired box protein Pax-8 (Q06710 whole entry): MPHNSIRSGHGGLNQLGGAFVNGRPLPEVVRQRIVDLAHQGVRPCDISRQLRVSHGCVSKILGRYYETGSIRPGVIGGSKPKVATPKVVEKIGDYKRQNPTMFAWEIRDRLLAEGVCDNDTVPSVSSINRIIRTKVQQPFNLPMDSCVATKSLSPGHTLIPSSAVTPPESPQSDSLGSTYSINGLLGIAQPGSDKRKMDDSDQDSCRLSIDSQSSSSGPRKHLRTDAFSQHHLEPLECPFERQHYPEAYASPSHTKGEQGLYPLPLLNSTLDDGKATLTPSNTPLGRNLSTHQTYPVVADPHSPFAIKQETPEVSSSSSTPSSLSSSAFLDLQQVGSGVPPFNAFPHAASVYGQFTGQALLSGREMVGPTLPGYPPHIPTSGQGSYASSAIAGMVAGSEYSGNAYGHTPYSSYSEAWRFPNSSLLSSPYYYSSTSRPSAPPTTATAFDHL

Chain of Glyceraldehyde-3-phosphate dehydrogenase (P04406 whole entry): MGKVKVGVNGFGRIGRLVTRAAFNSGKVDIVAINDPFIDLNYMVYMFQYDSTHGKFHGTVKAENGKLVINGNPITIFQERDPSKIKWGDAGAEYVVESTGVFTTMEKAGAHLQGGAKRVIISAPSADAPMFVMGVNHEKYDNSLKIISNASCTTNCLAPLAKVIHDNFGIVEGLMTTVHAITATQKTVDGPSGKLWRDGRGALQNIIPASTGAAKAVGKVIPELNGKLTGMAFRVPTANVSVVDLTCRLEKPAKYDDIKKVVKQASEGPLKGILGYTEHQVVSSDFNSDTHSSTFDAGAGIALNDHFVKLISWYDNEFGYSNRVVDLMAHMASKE
Chain of Cytochrome P450 2C19 (P33261 whole entry): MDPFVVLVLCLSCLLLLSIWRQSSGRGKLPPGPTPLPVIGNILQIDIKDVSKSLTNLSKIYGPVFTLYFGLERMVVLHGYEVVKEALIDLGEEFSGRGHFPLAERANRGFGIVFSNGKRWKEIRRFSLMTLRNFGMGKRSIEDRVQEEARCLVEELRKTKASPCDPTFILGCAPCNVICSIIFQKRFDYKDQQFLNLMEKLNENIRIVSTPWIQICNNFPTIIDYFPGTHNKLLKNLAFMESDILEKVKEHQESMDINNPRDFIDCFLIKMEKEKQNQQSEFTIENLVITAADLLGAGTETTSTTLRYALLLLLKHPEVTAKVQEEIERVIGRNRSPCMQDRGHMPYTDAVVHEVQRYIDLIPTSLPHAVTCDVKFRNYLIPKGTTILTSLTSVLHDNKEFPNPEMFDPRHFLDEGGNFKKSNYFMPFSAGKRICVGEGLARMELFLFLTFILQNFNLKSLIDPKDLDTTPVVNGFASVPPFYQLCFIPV
Chain of Luciferin 4-monooxygenase (P08659 whole entry): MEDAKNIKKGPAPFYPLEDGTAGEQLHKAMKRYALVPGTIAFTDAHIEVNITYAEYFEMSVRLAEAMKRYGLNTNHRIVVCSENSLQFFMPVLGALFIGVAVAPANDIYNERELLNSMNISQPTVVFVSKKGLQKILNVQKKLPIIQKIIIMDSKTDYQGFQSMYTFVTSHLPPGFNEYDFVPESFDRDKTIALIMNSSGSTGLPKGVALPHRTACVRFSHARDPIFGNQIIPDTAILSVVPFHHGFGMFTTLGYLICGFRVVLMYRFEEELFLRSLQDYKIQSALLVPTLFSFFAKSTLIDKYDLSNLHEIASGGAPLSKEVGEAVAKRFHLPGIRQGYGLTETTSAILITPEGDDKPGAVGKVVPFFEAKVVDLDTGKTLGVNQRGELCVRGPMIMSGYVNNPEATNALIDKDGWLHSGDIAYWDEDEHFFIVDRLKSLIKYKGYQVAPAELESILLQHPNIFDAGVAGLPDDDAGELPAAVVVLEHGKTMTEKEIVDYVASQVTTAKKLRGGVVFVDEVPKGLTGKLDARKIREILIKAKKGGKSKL
Chain of Cytochrome P450 2C9 (P11712 whole entry): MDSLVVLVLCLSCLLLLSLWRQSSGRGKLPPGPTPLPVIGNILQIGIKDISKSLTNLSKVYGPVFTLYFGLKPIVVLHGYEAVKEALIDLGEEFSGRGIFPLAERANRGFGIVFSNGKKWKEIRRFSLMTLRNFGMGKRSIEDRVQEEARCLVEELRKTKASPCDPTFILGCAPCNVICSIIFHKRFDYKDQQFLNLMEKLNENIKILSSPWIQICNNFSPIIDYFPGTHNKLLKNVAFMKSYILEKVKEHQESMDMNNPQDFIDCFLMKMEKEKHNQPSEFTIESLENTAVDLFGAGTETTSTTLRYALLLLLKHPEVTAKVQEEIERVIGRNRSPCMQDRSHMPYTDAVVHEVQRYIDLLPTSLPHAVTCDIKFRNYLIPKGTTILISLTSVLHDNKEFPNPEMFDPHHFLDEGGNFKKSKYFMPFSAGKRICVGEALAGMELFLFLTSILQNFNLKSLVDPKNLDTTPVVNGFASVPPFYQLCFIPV

N#CC1CC(c2ccccc2)=NN1c1ccccc1[N+](=O)[O-] (stereo not drawn)
EC50 [1]: > 160 µM (inactive)
EC50 [2]: > 38 µM (not active)

COc1ccc(N(C)C(=O)Nc2ccc3nsnc3c2)cc1
IC50 [3]: > 50 µM (not active)

CCOc1ccc(CN2CCNC(=O)C2CC(=O)NCCc2ccccn2)cc1 (stereo not drawn)
EC50 [4]: 6.68 µM (active)

O=C1C(Cl)=C(N2CCN(c3ncccn3)CC2)C(=O)N1c1ccc(C(F)(F)F)cc1
IC50 [5]: > 50 µM (inconclusive)

O=C1C(Cl)=C(N2CCN(c3ccccc3)CC2)C(=O)N1c1cccc(C(F)(F)F)c1
IC50 [5]: > 50 µM (inconclusive)

CSc1ncc(Cl)c(C(=O)C(C#N)c2nc(O)c3cc(C)cc(C)c3n2)n1 (stereo not drawn)
EC50 [1]: 18.3 µM (active)
EC50 [2]: 2.48 µM (active)

Cc1cc(NC(=O)c2cccc(Oc3ccccc3)c2)[nH]n1
EC50 [1]: > 150 µM (inactive)
EC50 [2]: 1.87 µM (active)

Cc1cc(OCCn2ccnc2)cc(C)c1Cl
EC50 [4]: 3.76 µM (active)

CCC(C)C1=CC(=Nc2c(C)n(C)n(-c3ccccc3)c2=O)C=C(C(C)CC)C1=O (stereo not drawn)
IC50 [3]: > 50 µM (not active)

Cc1cc(C=C2C(=O)N(C)C(=S)N(C)C2=O)c(C)n1-c1cccnc1
IC50 [3]: > 50 µM (not active)

Cc1cccc(N2C(=O)C(Cl)=C(N3CCN(c4ccccc4)CC3)C2=O)c1
IC50 [5]: > 50 µM (inconclusive)

O=C(NCCCN1CCN(c2cccc(Cl)c2)CC1)C1CCC(=O)N1Cc1ccccc1Cl (stereo not drawn)
EC50 [6]: > 112 µM (not active)
AC50 [7]: 0.00631 µM (inconclusive)
EC50 [8]: 2.99 µM (active)
AC50 [9]: 15.8 µM (inconclusive)
EC50 [10]: > 112 µM (not active)
AC50 [11]: 10 µM (inconclusive)

Cc1cc(C)c(C)c(OCCCN(C)C)c1
EC50 [4]: 0.168 µM (active)

COc1ccc(OC)c(NC(=O)c2c3c(nc4ccccc24)CCC3)c1
EC50 [1]: > 150 µM (inactive)
EC50 [2]: 2.17 µM (active)

Oc1cc(-c2ccccc2)c2ccccc2c1
IC50 [3]: 14.4 µM (active)
EC50 [12]: 40.1 µM (active)

NS(=O)(=O)c1ccc(/N=C/C2=C(O)c3ccccc3C2=O)cc1
IC50 [5]: > 100 µM (not active)

CC1CC(C)(C)N(C(=O)CN2C(=O)c3ccccc3C2=O)c2ccccc21 (stereo not drawn)
EC50 [4]: 5.96 µM (active)
EC50 [8]: 4.22 µM (active)
EC50 [13]: 6.44 µM (active)

CC(C)(C)[C@H]1C=C(C(=O)NCc2ccccc2)O[C@@H](OCc2ccc(CO)cc2)C1
EC50 [4]: 9.44 µM (active)

Cc1ccc(C(=O)N/C(=C/c2ccc(-c3cc(C(F)(F)F)ccc3Cl)o2)C(=O)NCc2cccnc2)cc1
EC50 [1]: 21.4 µM (active)
EC50 [2]: > 38 µM (not active)
CC50 [14]: > 40 µM (active)

c1ccc(Cn2nnnc2C(c2cccnc2)N2CCN(C3CCCCC3)CC2)cc1 (stereo not drawn)
EC50 [4]: 1.68 µM (active)

CC1(C)CC(=O)c2cc(C(=O)NCc3ccco3)c(=O)n(-c3ccc(Cl)cc3)c2C1
EC50 [4]: 6.68 µM (active)

Cc1ccc(S(=O)(=O)Nc2cccc(C(=O)NCC(c3ccccc3)N(C)C)c2)cc1F (stereo not drawn)
EC50 [4]: 5.31 µM (active)
EC50 [8]: 0.267 µM (active)

CC1CCCN(C(=O)c2ccc(S(=O)(=O)N3CCC(c4nc5ccccc5s4)CC3)cc2)C1 (stereo not drawn)
AC50 [15]: 5.85 µM (active)

COc1ccc(S(=O)(=O)N(C)C[C@H]2Oc3ccc(NC(=O)Nc4ccc(C(F)(F)F)cc4)cc3CC(=O)N([C@H](C)CO)C[C@@H]2C)cc1
AC50 [16]: 11.9 µM (active)

COc1ccc(NC(=O)Nc2ccc3c(c2)CC(=O)N([C@@H](C)CO)C[C@@H](C)[C@@H](CN(C)Cc2ccc(Oc4ccccc4)cc2)O3)cc1
AC50 [16]: 25.3 µM (active)

C[C@@H]1CCCCO[C@@H](CN(C)C(=O)Nc2ccccc2)[C@H](C)CN([C@H](C)CO)C(=O)c2cc(NC(=O)Nc3ccc(C(F)(F)F)cc3)ccc2O1
AC50 [16]: 3.07 µM (active)

O=C(NCCO)c1cc(-c2cc(F)c(F)cc2F)n[nH]1
IC50 [5]: > 10 µM (inconclusive)

COc1ccc(F)cc1S(=O)(=O)Nc1cccnc1
IC50 [5]: > 100 µM (not active)
